In the supplement of paper PMC10307832:

What was measured:
Assay in all cases: relative viability (nuclei count vs DMSO), 5 days (fraction); higher = more cells survive
[1] = compound: Cn1cc(-c2cnn3c(N)c(Br)c([C@@H]4CCCNC4)nc23)cn1 + O=C(c1cc(Cc2n[nH]c(=O)c3ccccc23)ccc1F)N1CCN(C(=O)C2CC2)CC1 [Olaparib] (partner 8 µM)
Summary of the method: (§1)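 Lung cancer cell lines in 1536-well plates got either a single drug or a fixed anchor-drug dose together with five library-drug doses (not always all listed) in √10 steps, by pin tool, on the day after seeding. Nuclei were counted after 5 days, and relative viability is the treated-to-vehicle ratio of nuclei counts. Values are medians of duplicate plates.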

[2] = compound: Cn1cc(-c2cnn3c(N)c(Br)c([C@@H]4CCCNC4)nc23)cn1 + CC(C)C[C@H](NC(=O)[C@H](Cc1ccccc1)NC(=O)c1cnccn1)B(O)O [Bortezomib] (partner 0.002 µM)
Summary of the method: as §1

[3] = compound: Cn1cc(-c2cnn3c(N)c(Br)c([C@@H]4CCCNC4)nc23)cn1 + Nc1nc2[nH]cc(CCc3ccc(C(=O)N[C@@H](CCC(=O)O)C(=O)O)cc3)c2c(=O)[nH]1 [Pemetrexed] (partner 0.2 µM)
Summary of the method: as §1

[4] = compound: Cn1cc(-c2cnn3c(N)c(Br)c([C@@H]4CCCNC4)nc23)cn1 + Cc1nc(NC(=O)N2CCC[C@H]2C(N)=O)sc1-c1ccnc(C(C)(C)C(F)(F)F)c1 [Alpelisib] (partner 2 µM)
Summary of the method: as §1

Row | Cell Line | relative viability ([1]; first compound 0.05 µM) | relative viability ([1]; first compound 0.1581 µM) | relative viability ([1]; first compound 0.5 µM) | relative viability ([1]; first compound 1.581 µM) | relative viability ([1]; first compound 5 µM) | relative viability ([2]; first compound 0.05 µM) | relative viability ([2]; first compound 0.1581 µM) | relative viability ([2]; first compound 0.5 µM) | relative viability ([2]; first compound 1.581 µM) | relative viability ([2]; first compound 5 µM) | relative viability ([3]; first compound 0.05 µM) | relative viability ([3]; first compound 0.1581 µM) | relative viability ([3]; first compound 0.5 µM) | relative viability ([3]; first compound 1.581 µM) | relative viability ([3]; first compound 5 µM) | relative viability ([4]; first compound 0.05 µM) | relative viability ([4]; first compound 0.1581 µM) | relative viability ([4]; first compound 0.5 µM) | relative viability ([4]; first compound 1.581 µM) | relative viability ([4]; first compound 5 µM)
1 | 201T | 0.888 | 0.836 | 0.803 | 0.743 | 0.719 | 1.04 | 1.09 | 1.1 | 1.07 | 1.17 | 0.362 | 0.327 | 0.315 | 0.264 | 0.294 | 1.04 | 1.02 | 1.05 | 0.98 | 0.909
2 | A549 | 0.483 | 0.35 | 0.352 | 0.301 | 0.166 | – | – | – | – | – | – | – | – | – | – | 0.659 | 0.822 | 0.653 | 0.752 | 0.495
3 | A-427 | 0.819 | 0.761 | 0.742 | 0.704 | 0.561 | 1 | 0.937 | 1.2 | 0.961 | 0.743 | 0.938 | 0.99 | 1.03 | 0.837 | 0.46 | 1.11 | 1.05 | 1.15 | 0.977 | 1.01
4 | ABC-1 | – | 1.1 | 1.17 | 0.783 | 0.456 | 0.364 | 0.284 | 0.298 | 0.331 | 0.287 | – | – | – | – | – | 1.14 | 1.03 | 0.814 | 0.917 | 0.401
5 | BEN | 1.14 | 1.12 | 1.17 | 1.01 | 0.905 | 0.688 | 0.824 | 0.729 | 0.774 | 0.553 | 0.763 | 0.825 | 0.719 | 0.708 | 0.616 | 0.891 | 1.15 | 1.05 | 0.869 | 0.778
6 | CAL-12T | 0.835 | 0.752 | 0.824 | 0.398 | 0.268 | 0.728 | 0.899 | 0.775 | 0.718 | 0.315 | 1.45 | 0.778 | 0.892 | 0.623 | 0.393 | 1.27 | 1.29 | 0.937 | 0.716 | 0.228
7 | COR-L23 | 0.38 | 0.302 | 0.3 | 0.249 | 0.168 | 1.08 | 1.23 | 0.913 | 0.646 | 0.46 | 0.196 | 0.178 | 0.178 | 0.186 | 0.139 | 0.768 | 1.09 | 0.981 | 0.589 | 0.306
8 | COR-L 105 | 0.467 | 0.512 | 0.752 | 0.64 | 0.519 | 0.757 | 0.721 | 0.768 | 0.613 | 0.611 | 0.939 | 0.921 | 1.08 | 0.92 | 0.82 | 0.962 | 1 | 0.978 | 0.734 | 0.572
9 | Calu-6 | 0.604 | 0.521 | 0.481 | 0.251 | 0.168 | 1.17 | 0.733 | 0.685 | 0.363 | 0.188 | – | – | – | – | – | 0.98 | 0.82 | 0.883 | 0.379 | 0.182
10 | ChaGo-K-1 | 0.407 | 0.511 | 0.419 | 0.428 | 0.463 | 0.909 | 1.01 | 0.826 | 0.717 | 0.682 | 0.259 | 0.248 | 0.273 | 0.28 | 0.247 | – | – | – | – | –
11 | EBC-1 | 0.846 | 0.854 | 0.726 | 0.75 | 0.616 | 0.609 | 0.599 | 0.445 | 0.461 | 0.394 | – | – | – | – | – | 0.902 | 0.913 | 0.704 | 0.774 | 0.753
12 | EKVX | 0.761 | 0.958 | 0.872 | 0.767 | 0.707 | 1.06 | 1.16 | 0.987 | 0.836 | 1.07 | 0.497 | 0.293 | 0.307 | 0.241 | 0.206 | 0.908 | 1.05 | 0.91 | 0.694 | 0.753
13 | EMC-BAC-2 | 0.492 | 0.521 | 0.47 | 0.383 | 0.475 | 1.04 | 1.14 | 1.13 | 1.02 | 1.15 | 0.478 | 0.386 | 0.399 | 0.433 | 0.462 | 0.778 | 0.885 | 0.66 | 0.708 | 0.81
14 | EPLC-272H | 0.709 | 0.683 | 0.294 | 0.279 | 0.215 | 0.853 | 0.891 | 0.933 | 0.769 | 0.82 | 0.268 | 0.186 | 0.139 | 0.106 | 0.098 | 0.93 | 0.902 | 1.01 | 0.956 | 0.824
15 | H3255 | 0.567 | 0.615 | 0.604 | 0.509 | 0.39 | 0.676 | 0.787 | 0.854 | 0.792 | 0.441 | 0.537 | 0.536 | 0.56 | 0.483 | 0.461 | 0.776 | 0.722 | 0.684 | 0.626 | 0.494
16 | HARA | 0.758 | 0.856 | 0.784 | 0.442 | 0.229 | 1.19 | 1.16 | 1.18 | 0.764 | 0.224 | 0.228 | 0.213 | 0.223 | 0.141 | 0.141 | 0.875 | 0.701 | 0.792 | 0.806 | 0.619
17 | HCC-15 | 0.832 | 0.797 | 0.837 | 0.867 | 0.973 | 1.16 | 1.18 | 1.03 | 0.788 | 1.11 | 0.206 | 0.232 | 0.227 | 0.226 | 0.207 | 0.981 | 1.01 | 0.863 | 0.782 | 0.901
